From patent publication US8592422B2, “Bicyclic triazole and pyrazole lactams as allosteric modulators of mGluR5 receptors” (Vanderbilt University, priority 2010, dated 2013)
Where two headings read alike, the source gives them in different places.

Key:
[1] = molecular target: T1, human mGluR5a receptor (Homo sapiens, UniProt P41594); assay: Cell-based functional Ca2+ mobilization assay (FDSS), potentiation of glutamate EC20 response; conditions: for EC50 / pEC50: HEK cells transfected with human mGluR5 (H10H or H12H), in presence of EC20 glutamate; for Emax / Emax (%): maximum % effect in concentration-response curve, as percent of response to maximally effective glutamate
T1 construct: cDNA subcloned into pcDNA3.1(-)
T1 sequence (P41594 21-1180 isoform P41594-2 limits assumed): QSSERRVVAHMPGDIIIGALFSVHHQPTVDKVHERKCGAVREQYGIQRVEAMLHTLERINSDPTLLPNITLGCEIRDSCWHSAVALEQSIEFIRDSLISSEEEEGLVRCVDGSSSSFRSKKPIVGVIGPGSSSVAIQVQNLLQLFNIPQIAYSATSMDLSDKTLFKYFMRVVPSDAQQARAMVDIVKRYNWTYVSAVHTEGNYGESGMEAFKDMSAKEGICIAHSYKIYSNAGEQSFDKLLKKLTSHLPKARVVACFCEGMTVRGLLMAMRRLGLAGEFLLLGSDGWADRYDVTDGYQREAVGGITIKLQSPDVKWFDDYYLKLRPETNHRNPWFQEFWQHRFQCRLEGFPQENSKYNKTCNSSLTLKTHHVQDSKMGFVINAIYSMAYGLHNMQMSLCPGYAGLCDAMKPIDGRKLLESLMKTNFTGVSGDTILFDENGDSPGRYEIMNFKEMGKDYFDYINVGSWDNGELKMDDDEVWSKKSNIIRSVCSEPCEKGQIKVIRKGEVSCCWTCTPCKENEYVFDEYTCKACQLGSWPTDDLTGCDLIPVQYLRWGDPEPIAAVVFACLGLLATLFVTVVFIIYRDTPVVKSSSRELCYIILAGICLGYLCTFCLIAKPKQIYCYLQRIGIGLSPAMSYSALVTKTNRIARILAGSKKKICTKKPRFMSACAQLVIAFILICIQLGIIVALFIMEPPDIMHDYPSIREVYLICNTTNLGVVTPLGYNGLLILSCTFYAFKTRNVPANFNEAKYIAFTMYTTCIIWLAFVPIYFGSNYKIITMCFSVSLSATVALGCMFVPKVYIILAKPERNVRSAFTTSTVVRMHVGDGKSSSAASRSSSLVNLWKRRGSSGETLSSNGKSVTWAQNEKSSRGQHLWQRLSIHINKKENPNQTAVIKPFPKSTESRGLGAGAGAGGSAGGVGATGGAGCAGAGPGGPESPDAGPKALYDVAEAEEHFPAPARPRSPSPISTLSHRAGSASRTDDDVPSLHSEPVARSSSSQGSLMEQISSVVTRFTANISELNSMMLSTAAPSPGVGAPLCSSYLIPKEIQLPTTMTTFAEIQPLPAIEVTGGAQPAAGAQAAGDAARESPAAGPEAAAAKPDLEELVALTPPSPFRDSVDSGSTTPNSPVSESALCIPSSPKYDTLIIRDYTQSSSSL
Procedure, shortened: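 HEK293A cells stably expressing human mGluR5a (H10H or H12H clones), plated overnight in glutamate-glutamine-free medium, loaded with Ca2+-sensitive dye (e.g. Fluo-4) and read on FDSS.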

EC50 ([1]; read-out: EC50) | Emax [1] | melting point | pEC50 [1] | Emax (%) [1] | EC50 ([1]; read-out: pEC50 (converted)) | Structure (SMILES)
71 nM | 68% | 99.5 °C |  |  |  | CC1CN(c2ccc(F)cc2)C(=O)c2cc(COc3ccccc3)nn21 (racemic) [Example 19]
141 nM | 69% | 164.2 °C |  |  |  | CC1CN(c2ccc(F)cc2)C(=O)c2cc(COc3ccc(F)cc3)nn21 (racemic) [Example 234]
> 10000 nM | 39% |  |  |  |  | COC[C@@H]1Cn2nc(COc3ccccc3)cc2C(=O)N1c1ccc(F)cc1 [Example 270]
2570 nM |  |  | 5.59 | 65% |  | O=C1c2cc(COc3ccccc3)nn2CCN1c1cccc(C2CCOCC2)n1 [Example 274]
> 30200 nM |  |  | <4.52 | 36% |  | O=C1c2cc(COc3ccccc3)nn2CCN1c1cccc(C2CCNCC2)n1 [Example 275]
1260 nM |  |  | 5.90 | 68% |  | CN(C)c1ccnc(N2CCn3nc(COc4ccccc4)cc3C2=O)n1 [Example 276]
933 nM |  |  | 6.03 | 63% |  | CNc1ccnc(N2CCn3nc(COc4ccccc4)cc3C2=O)n1 [Example 277]
275 nM | 56% |  |  |  |  | CNc1cccc(N2CCn3nc(COc4ccccc4)cc3C2=O)n1 [Example 278]
263 nM |  |  | 6.58 | 68% |  | O=C1c2cc(COc3ccccc3)nn2CCN1c1cccc(N2CCCC2)n1 [Example 281]
41 nM |  |  | 7.39 | 77% |  | CN(C)c1ccc(F)c(N2CCn3nc(COc4ccccc4)cc3C2=O)n1 [Example 283]
2820 nM |  |  | 5.55 | 53% |  | CN(C)c1ccc(N2CCn3nc(COc4ccccc4)cc3C2=O)nn1 [Example 284]
741 nM |  |  | 6.13 | 68% |  | Nc1cccc(N2CCn3nc(COc4ccccc4)cc3C2=O)n1 [Example 285]
398 nM |  |  | 6.40 | 69% |  | CN(C)c1nccnc1N1CCn2nc(COc3ccccc3)cc2C1=O [Example 288]
1200 nM | 65% |  |  |  |  | CN(C)c1cccnc1N1CCn2nc(COc3ccccc3)cc2C1=O [Example 289]
47 nM |  |  | 7.33 | 56% |  | Cc1cc(N(C)C)nc(N2CCn3nc(COc4ccccc4)cc3C2=O)c1 [Example 290]
34 nM |  |  | 7.47 | 66% |  | Cc1ccc(N2CCn3nc(COc4ccccc4)cc3C2=O)nc1N(C)C [Example 292]
28 nM |  |  | 7.56 | 69% |  | COc1nc(N2CCn3nc(COc4ccccc4)cc3C2=O)ncc1Cl [Example 295]
620 nM | 50% |  |  |  |  | COc1cc(N2CCn3nc(COc4ccccc4)cc3C2=O)nnc1Cl [Example 296]
260 nM |  |  | 6.58 | 73% |  | COc1ncc(C)cc1N1CCn2nc(COc3ccccc3)cc2C1=O [Example 298]
96 nM |  |  | 7.02 | 58% |  | COc1ccc(N2CCn3nc(COc4ccccc4)cc3C2=O)nc1OC [Example 301]
190 nM |  |  | 6.72 | 77% |  | COCc1cc(F)ccc1N1CCn2nc(COc3ccccc3)cc2C1=O [Example 304]
40 nM |  |  | 7.40 | 71% |  | CN(C)c1nc(N2CCn3nc(COc4ccccc4)cc3C2=O)ccc1F [Example 305]
> 30200 nM |  |  | <4.52 | 28% |  | CNc1cccc(OCc2cc3n(n2)CCN(c2ccc(F)cc2)C3=O)n1 [Example 311]
178 nM |  |  | 6.75 | 74% |  | CN(C)c1cccc(N2CCn3nc(COc4ccccn4)cc3C2=O)n1 [Example 313]
204 nM |  |  | 6.69 | 70% |  | CN(C)c1ccc(F)c(N2CCn3nc(COc4ccccn4)cc3C2=O)n1 [Example 314]

EC50 ([1]; read-out: EC50) | Emax [1] | melting point | pEC50 [1] | Emax (%) [1] | EC50 ([1]; read-out: pEC50 (converted)) | Structure (SMILES)
42 nM |  |  | 7.38 | 66% |  | CN(C)c1cccc(N2CCn3nc(COc4ccc(F)cc4)cc3C2=O)n1 [Example 317]
> 10000 nM |  |  | <5.00 | 61% |  | Cn1cc(N2CCn3nc(COc4ccccc4)cc3C2=O)cn1 [Example 320]
> 10000 nM |  |  | <5.00 | 44% |  | Cc1[nH]ncc1N1CCn2nc(COc3ccccc3)cc2C1=O [Example 322]
58 nM |  |  | 7.24 | 71% |  | O=C1c2cc(COc3ccccc3)nn2CCN1c1nc2ccccc2o1 [Example 324]
260 nM |  |  | 6.59 | 66% |  | COc1cc(N2CCn3nc(COc4ccccc4)cc3C2=O)ncn1 [Example 351]
> 10000 nM |  |  | <5.00 | 55% |  | Cn1cncc1N1CCn2nc(COc3ccccc3)cc2C1=O [Example 352]
420 nM | 64% |  |  |  |  | O=C1c2cc(COc3ccccc3)nn2CCN1c1cccc(=O)[nH]1 [Example 359]
190 nM | 66% |  |  |  |  | O=C1c2cc(COc3ccccc3)nn2CCN1c1ccc2cccnc2c1 [Example 360]
72 nM |  |  | 7.14 | 66% |  | O=C1c2cc(COc3ccccc3)nn2CCN1c1ccc2scnc2c1 [Example 361]
54 nM | 71% |  |  |  |  | O=C1c2cc(COc3ccccc3)nn2CCN1c1cnc2ccccc2c1 [Example 362]
1300 nM | 65% |  |  |  |  | O=C1c2cc(COc3ccccc3)nn2CCN1c1ccc2ncncc2c1 [Example 363]
46 nM |  |  | 7.34 | 75% |  | O=C1c2cc(COc3ccccc3)nn2CCN1c1ccc2nccc(Cl)c2c1 [Example 364]
40 nM |  |  | 7.40 | 73% |  | O=C1c2cc(COc3ccccc3)nn2CCN1c1cccc(Cl)n1 [Example 365]
850 nM |  |  | 6.07 | 62% |  | Cn1cc2ccc(N3CCn4nc(COc5ccccc5)cc4C3=O)cc2n1 [Example 366]
88 nM |  |  | 7.06 | 60% |  | Cc1nc2cc(N3CCn4nc(COc5ccccc5)cc4C3=O)ccc2s1 [Example 367]
 | 69% |  |  |  | 12.9 nM | O=C1c2cc(COc3ccccc3)nn2CCN1c1ccc(F)c2ccccc12 [Example 368]
230 nM |  |  | 6.64 | 68% |  | Cc1ccc2ccc(N3CCn4nc(COc5ccccc5)cc4C3=O)cc2n1 [Example 369]
1100 nM | 68% |  |  |  |  | O=C1c2cc(COc3ccccc3)nn2CCN1c1cnc2cccnn12 [Example 370]
32 nM |  |  | 7.49 | 68% |  | O=C1c2cc(COc3ccccc3)nn2CCN1c1ccc2nsnc2c1 [Example 371]
130 nM | 67% |  |  |  |  | O=C1c2cc(COc3ccccc3)nn2CCN1c1cc(F)cc2cccnc12 [Example 372]
> 10000 nM | 55% |  |  |  |  | O=C1c2cc(COc3ccccc3)nn2CCN1c1ccc2nccnc2n1 [Example 373]
3400 nM | 72% |  |  |  |  | O=C1c2cc(COc3ccccc3)nn2CCN1c1cnc2cnccn12 [Example 374]
72 nM |  |  | 7.14 | 70% |  | O=C1c2cc(COc3ccccc3)nn2CCN1c1ccc2nonc2c1 [Example 375]
> 10000 nM |  |  | <5.00 | 71% |  | O=C1c2cc(COc3ccccc3O)nn2CCN1c1ccc(F)cn1 [Example 377]
> 30200 nM |  |  | <4.52 | 29% |  | O=c1[nH]ccn2nc(COc3ccccc3)cc12 [Example 378]
